Experiments:
Type in all cases: biochemical
PYL1-HAB1 = target: T1, PYL1-HAB1 (Arabidopsis thaliana, UniProt Q8VZS8); test: PP2C activity assay, PYL1-HAB1 inhibition; conditions: 200 nM test compound, 100 nM HAB1 PP2C, 200 nM receptor; read-out: % Inhibition of PYR/PYL-HAB1 at 200 nM: PYL1
T1 construct: 6xHis (N); made in house; host or cells: E. coli BL21[DE3]pLysS (stated for GST-HAB1)
T1 sequence (Q8VZS8 1-221): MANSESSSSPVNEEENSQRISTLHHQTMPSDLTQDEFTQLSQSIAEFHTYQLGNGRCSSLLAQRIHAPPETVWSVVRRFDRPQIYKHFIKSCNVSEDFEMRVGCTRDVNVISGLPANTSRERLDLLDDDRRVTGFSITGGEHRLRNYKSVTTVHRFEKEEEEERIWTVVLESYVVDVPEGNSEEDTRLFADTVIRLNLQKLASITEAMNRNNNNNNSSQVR
T1 sequence (Q9CAJ0 23-511 partner): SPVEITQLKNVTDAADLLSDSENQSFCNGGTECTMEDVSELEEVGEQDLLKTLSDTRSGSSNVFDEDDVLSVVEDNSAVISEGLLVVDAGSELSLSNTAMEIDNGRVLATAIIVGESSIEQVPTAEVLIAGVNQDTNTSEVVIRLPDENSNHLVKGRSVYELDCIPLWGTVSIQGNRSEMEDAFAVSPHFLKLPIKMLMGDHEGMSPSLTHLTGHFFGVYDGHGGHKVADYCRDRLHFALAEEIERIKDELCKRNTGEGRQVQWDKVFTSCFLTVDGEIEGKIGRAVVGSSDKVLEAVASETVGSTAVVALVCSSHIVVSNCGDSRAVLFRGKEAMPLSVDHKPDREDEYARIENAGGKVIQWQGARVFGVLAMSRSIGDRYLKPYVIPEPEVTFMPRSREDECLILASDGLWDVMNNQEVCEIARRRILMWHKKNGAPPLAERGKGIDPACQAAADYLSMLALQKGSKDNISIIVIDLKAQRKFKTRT
Text: (§1) The protein HAB1, a type 2 protein phosphatase (PP2C), is inhibited by PYR/PYL proteins in dependence of abscisic acid or other agonists. The potency of an agonist correlates with the level of inhibition of the PP2C, and therefore the IC50 (receptor-HAB1) can be used to compare the relative activity of different chemical analogues. Since inhibition of PP2C correlates to inhibition of seed-germination and increase in plant water-use efficiency, it serves as a powerful tool to quantify biological potential of a chemical acting as an analogue of abscisic acid.
(§2) HAB1 and PYL proteins were expressed and purified as described in Park et al. ((2009) Science 324(5930):1068-1071), with minor modifications. GST-HAB1 was produced by expression in BL21[DE3]pLysS host cells with an expression clone containing the HAB1 cDNA cloned into pGex-2T. Transformed E. coli cells were pre-cultured overnight, transferred to LB medium and cultured at 30° C. to culture A600 of ˜0.5 OD units. The culture was then cooled on ice and MnCl2 added to 4 mM and IPTG added to 0.3 mM. After 16 hours incubation at 15° C., cells were harvested and recombinant proteins were purified on glutathione agarose as described in Park et al. To obtain 6×His-PYL receptor fusion proteins, we used expression constructs previously described by Okamoto et al. 2013, (PNAS 110(29): 12132-12137).
(§3) PP2C activity assays using recombinant receptors and PP2Cs were carried out as follows: purified proteins were pre-incubated in 160 μl assay buffer containing (100 mM Tris-HCl-pH7.9, 100 mM NaCl, 3 μg bovine serum albumin and 0.1% 2-mercaptoethanol), 1 mM MnCl2 with carrier solvent (DMSO), quinabactin or quinabactin analogs (compounds of the present invention) for 30 minutes at room temperature. Reactions were started by adding 40 μL of a reaction solution containing 25 mM 4-nitrophenyl phosphate in assay buffer, after which absorbance measurements were immediately collected (405 nm) using a Wallac plate reader. Reactions contained 100 nM HAB1 PP2C and 200 nM receptor and 200 nM test compound. Inhibition is indicated by reduced PP2C activity, which is expressed as a percentage of the control PP2C activity values that were obtained from assays containing carrier solvent instead but no test compound.

PYR1-HAB1 = target: T2, PYR1-HAB1 (Arabidopsis thaliana, UniProt O49686); test: PP2C activity assay, PYR1-HAB1 inhibition; conditions: for activity at 0.2 µM: 200 nM test compound, 100 nM HAB1 PP2C, 200 nM receptor, read-out: % Inhibition of PYR/PYL-HAB1 at 200 nM: PYR1; for IC50: dose response in triplicate, non-linear regression
T2 construct: 6xHis (N); made in house; host or cells: E. coli BL21[DE3]pLysS (stated for GST-HAB1)
T2 sequence (O49686 1-191): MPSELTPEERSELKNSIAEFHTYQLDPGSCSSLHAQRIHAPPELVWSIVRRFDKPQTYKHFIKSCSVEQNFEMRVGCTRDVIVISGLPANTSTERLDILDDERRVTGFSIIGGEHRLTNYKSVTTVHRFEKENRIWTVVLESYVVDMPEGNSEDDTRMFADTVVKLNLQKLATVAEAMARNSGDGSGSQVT
T2 sequence (Q9CAJ0 23-511 partner): T1 sequence (Q9CAJ0 23-511 partner)
Text: as §1, §2
as §3, with “Reactions contained 100 nM HAB1 PP2C and 200 nM receptor and 200 nM test compound.” left out

PYL2-HAB1 = target: T3, PYL2-HAB1 (Arabidopsis thaliana, UniProt O80992); test: PP2C activity assay, PYL2-HAB1 inhibition; conditions: for percent inhibition at 0.2 µM: 200 nM test compound, 100 nM HAB1 PP2C, 200 nM receptor, read-out: % Inhibition of PYR/PYL-HAB1 at 200 nM: PYL2; for IC50: dose response in triplicate, non-linear regression
T3 construct: 6xHis (N); made in house; host or cells: E. coli BL21[DE3]pLysS (stated for GST-HAB1)
T3 sequence (O80992 1-190): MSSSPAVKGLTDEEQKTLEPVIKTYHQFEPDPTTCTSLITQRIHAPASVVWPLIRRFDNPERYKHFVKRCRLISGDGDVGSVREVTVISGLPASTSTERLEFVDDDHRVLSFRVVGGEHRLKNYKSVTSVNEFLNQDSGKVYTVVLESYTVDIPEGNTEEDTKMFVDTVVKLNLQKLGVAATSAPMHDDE
T3 sequence (Q9CAJ0 23-511 partner): T1 sequence (Q9CAJ0 23-511 partner)
Text: as §1, §2
as §3, with “Reactions contained 100 nM HAB1 PP2C and 200 nM receptor and 200 nM test compound.” left out

Structure (SMILES)	activity at 0.2 µM (PYL1-HAB1) [%]	activity at 0.2 µM (PYR1-HAB1) [%]	percent inhibition at 0.2 µM (PYL2-HAB1) [%]	IC50 (PYR1-HAB1) [nM]	IC50 (PYL2-HAB1) [nM]
CCCN1C(=O)CCc2cc(NS(=O)(=O)Cc3ccc(F)cc3Br)cc(F)c21 [HQ8]	87.4	107	92		
CCCN1C(=O)CCc2cc(NS(=O)(=O)Cc3ccc([N+](=O)[O-])cc3)cc(F)c21 [HQ24]	53.2	69	76.5		
CCCN1C(=O)CCc2cc(NS(=O)(=O)Cc3ccccc3C#N)cc(F)c21 [HQ12]	82.4	106	94.5		
CCCN1C(=O)CCc2cc(NS(=O)(=O)Cc3cc(F)ccc3F)cc(F)c21 [HQ6]	35.1	57.9	57.4		
CCCN1C(=O)CCc2cc(NS(=O)(=O)Cc3ccc(Cl)cc3Cl)cc(F)c21 [HQ22]	70.6	91.5	86.3		
CCCN1C(=O)CCc2cc(NS(=O)(=O)Cc3ccc(C#N)cc3)cc(F)c21 [HQ10]	44.3	39.8	77.2		
CCCN1C(=O)CCc2cc(NS(=O)(=O)Cc3ccc(C)cc3)cc(F)c21 [HQ1]	11.8	14.7	28	37.5	42
CCCN1C(=O)CCc2cc(NS(=O)(=O)Cc3cccc(C(F)(F)F)c3)cc(F)c21 [HQ17]	88.1	104	88.2		
CCCN1C(=O)CCc2cc(NS(=O)(=O)Cc3ccc(OC(F)(F)F)cc3)cc(F)c21 [HQ15]	47.6	54.8	70.1		
CCCN1C(=O)CCc2cc(NS(=O)(=O)Cc3ccc(C(F)(F)F)cc3)cc(F)c21 [HQ16]	38.5	52	53.9		
CCCN1C(=O)CCc2cc(NS(=O)(=O)Cc3ccc(F)cc3Cl)cc(F)c21 [HQ13]	88.2	110	94.1		
CCCN1C(=O)CCc2cc(NS(=O)(=O)Cc3ccc(C)cc3)cc(Cl)c21 [HQ2]	20.3	37.9	38.9	47.7	74
CCCN1C(=O)CCc2cc(NS(=O)(=O)Cc3ccc(C)cc3)ccc21 [Quinabactin]	23	22	44	104	262
CCCN1C(=O)CCc2cc(NS(=O)(=O)Cc3ccc(F)cc3F)cc(F)c21 [HQ4]	46.1	61.5	69.3		
CCCN1C(=O)CCc2cc(NS(=O)(=O)Cc3ccc(Cl)cc3Br)cc(F)c21 [HQ9]	86.9	105	92.2		

More lines, now with the values ahead:

activity at 0.2 µM (PYL1-HAB1) [%]	activity at 0.2 µM (PYR1-HAB1) [%]	percent inhibition at 0.2 µM (PYL2-HAB1) [%]	IC50 (PYR1-HAB1) [nM]	IC50 (PYL2-HAB1) [nM]	Structure (SMILES)
48.2	62.4	63.7			CCCN1C(=O)CCc2cc(NS(=O)(=O)Cc3cccc(F)c3)cc(F)c21 [HQ21]
79.8	90	88			CCCN1C(=O)CCc2cc(NS(=O)(=O)Cc3cccc(Cl)c3)cc(F)c21 [HQ27]
51.4	63.6	74.8			CCCN1C(=O)CCc2cc(NS(=O)(=O)Cc3ccccc3)cc(F)c21 [HQ26]
84.7	97.4	94.1			CCCN1C(=O)CCc2cc(NS(=O)(=O)Cc3ccccc3Br)cc(F)c21 [HQ20]
46.7	65.7	78.3			CCCN1C(=O)CCc2cc(NS(=O)(=O)Cc3ccccc3F)cc(F)c21 [HQ3]
85.7	90.8	87.8			CCCN1C(=O)CCc2cc(NS(=O)(=O)Cc3cccc(Br)c3)cc(F)c21 [HQ23]

— US11332443B2, “Derivatives of halo quinabactin” (THE REGENTS OF THE UNIVERSITY OF CALIFORNIA, priority 2015, dated 2022)
